{"source": "patent US9051456B2", "about": "“Agent for drug clearance and accelerator for drug clearance” (SEIKAGAKU CORPORATION, priority 2005, dated 2015)", "test": "Elimination of FP from inside of the oral cavity by gargling/rinsing (Tests 1 to 6), FP in spat-out liquids measured by HPLC", "type": "in vivo, human (healthy adult volunteers)", "settings": "conclusion from Tests 1 to 6", "procedure": "Healthy 5 adult volunteers were selected. In this connection, these volunteers received sufficient explanation from a doctor based on a descriptive document, and after understanding the explanation, submitted a document on their own judgment stating that they approved the participation in the test.\nIn this connection, application of FP was carried out by directly applying the FP (dry powder) took out on powder papers. Also, the subjects were given attention not to inhale the FP applied into the oral cavity from the bronchus to the lungs.\nTest 1: After rinsing inside of the oral cavity, inside of the oral cavity was dried by blowing air for 30 seconds with a dryer, and then FP (100 μg) was sparged to the oral cavity. Thereafter, rinsing of the mouth with looking upward (gargling) was carried out for 5 seconds and then rinsing of the mouth facing front (rinsing) was carried out for 5 seconds (these are regarded as once), respectively using 20 ml of purified water, which was repeated 5 times. […]\nIn each test, the liquids spat out after gargling and rinsing by each subject were recovered, and FP concentrations in said liquids were respectively measured. […]\nBased on the measured FP concentrations, amounts of FP eliminated from inside of the oral cavity were calculated, and mean value and standard deviation (SD) in each test were calculated. […]"}
{"substance": "hyaluronic acid [HA]", "values": [{"measurement": "overall effect on elimination of drugs and acceleration of elimination", "result": "markedly effective"}]}
